Biological target: T1, PI3Kβ (Homo sapiens, UniProt P42338)
T1 construct: made in house
Assay: TR-FRET enzymatic activity assay against PI3K isoforms
Format: biochemical
Conditions: 2×Km ATP, 2 μM PIP2, 30 minutes at 25° C., recombinant heterodimeric PI3Kβ 25-50 pM, read-out: IC50-PIP-Beta
Experimental: The compounds of formula (I) were characterized for their enzymatic activity against the PI3K isoforms. The activities were measured using a time-resolved fluorescence resonance energy transfer (TR-FRET) assay. TR-FRET monitored the formation of 3,4,5-inositol triphosphate molecule that competed with fluorescently labeled PIPS for binding to the GRP-1 pleckstrin homology domain protein.
Class I PI3K isoforms were expressed and purified as heterodimeric recombinant proteins. All assay reagents and buffers for the TR-FRET assay were purchased from Millipore. […] The compounds were added to the assay solution and incubated for 30 minutes at 25° C. The reactions were terminated with a final concentration of 10 mM EDTA, 10 nM labeled-PIPS, and 35 nM Europium labeled GRP-1 detector protein before reading TR-FRET on an Envision plate reader (Ex: 340 nm; Em: 615/665 nm; 100 μs delay and 500 μs read window).
The results were normalized based on positive (1 μM wortmanin) and negative (DMSO) controls, and the IC50 values for PI3K α, β, δ, and γ were calculated from the fit of the dose-response curves to a four-parameter equation. These assays generally produced results within 3-fold of the reported mean.

T1 sequence (P42338 whole entry): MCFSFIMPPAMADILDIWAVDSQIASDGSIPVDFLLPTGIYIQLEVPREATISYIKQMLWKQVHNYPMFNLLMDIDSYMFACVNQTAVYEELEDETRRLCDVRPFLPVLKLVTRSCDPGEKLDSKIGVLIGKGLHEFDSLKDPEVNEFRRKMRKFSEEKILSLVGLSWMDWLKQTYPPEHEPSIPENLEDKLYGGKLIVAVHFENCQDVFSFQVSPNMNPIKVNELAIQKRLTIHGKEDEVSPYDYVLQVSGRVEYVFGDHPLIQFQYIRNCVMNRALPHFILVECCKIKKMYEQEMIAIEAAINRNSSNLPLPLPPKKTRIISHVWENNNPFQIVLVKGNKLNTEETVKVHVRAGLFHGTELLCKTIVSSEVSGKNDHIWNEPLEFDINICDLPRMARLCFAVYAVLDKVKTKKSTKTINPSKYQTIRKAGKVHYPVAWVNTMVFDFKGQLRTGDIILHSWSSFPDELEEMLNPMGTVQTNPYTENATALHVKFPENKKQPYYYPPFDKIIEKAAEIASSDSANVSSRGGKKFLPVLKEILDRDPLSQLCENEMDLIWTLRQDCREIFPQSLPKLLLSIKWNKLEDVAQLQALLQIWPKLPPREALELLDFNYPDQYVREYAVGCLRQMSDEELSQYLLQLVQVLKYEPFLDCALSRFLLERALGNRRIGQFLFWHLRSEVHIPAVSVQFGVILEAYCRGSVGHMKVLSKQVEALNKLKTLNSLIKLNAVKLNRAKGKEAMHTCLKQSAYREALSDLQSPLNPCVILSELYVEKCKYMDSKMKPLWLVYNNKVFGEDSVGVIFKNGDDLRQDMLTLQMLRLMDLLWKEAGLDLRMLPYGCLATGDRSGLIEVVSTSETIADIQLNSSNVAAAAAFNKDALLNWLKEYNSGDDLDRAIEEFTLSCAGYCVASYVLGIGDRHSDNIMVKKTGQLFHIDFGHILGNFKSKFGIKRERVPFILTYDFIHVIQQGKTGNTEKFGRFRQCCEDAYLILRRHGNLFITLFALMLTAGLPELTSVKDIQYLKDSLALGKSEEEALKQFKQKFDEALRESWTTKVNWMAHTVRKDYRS
T1 sequence (P27986 whole entry partner): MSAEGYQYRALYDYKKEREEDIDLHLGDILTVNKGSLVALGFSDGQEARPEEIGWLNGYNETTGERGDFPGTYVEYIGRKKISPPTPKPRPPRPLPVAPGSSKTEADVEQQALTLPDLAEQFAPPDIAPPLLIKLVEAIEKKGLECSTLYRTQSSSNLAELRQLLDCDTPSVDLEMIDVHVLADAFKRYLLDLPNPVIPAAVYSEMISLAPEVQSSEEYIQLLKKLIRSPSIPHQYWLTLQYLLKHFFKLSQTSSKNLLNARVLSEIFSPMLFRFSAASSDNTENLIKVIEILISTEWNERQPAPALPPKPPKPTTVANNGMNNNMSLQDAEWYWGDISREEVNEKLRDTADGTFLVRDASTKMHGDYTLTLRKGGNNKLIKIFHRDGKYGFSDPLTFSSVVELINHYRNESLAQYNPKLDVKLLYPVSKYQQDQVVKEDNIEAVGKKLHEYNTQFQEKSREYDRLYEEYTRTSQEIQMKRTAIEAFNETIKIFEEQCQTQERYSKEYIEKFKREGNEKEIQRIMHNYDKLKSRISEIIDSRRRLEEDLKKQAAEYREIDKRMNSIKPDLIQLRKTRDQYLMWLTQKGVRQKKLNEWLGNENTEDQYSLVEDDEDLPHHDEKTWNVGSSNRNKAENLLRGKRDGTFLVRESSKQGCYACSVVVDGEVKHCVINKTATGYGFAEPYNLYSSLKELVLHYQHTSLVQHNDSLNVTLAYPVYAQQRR

| IC50 | SMILES |
| --- | --- |
| 42 nM | CCCc1nc2c(-c3nnc[nH]3)cc(N3CCOCC3)cc2n1-c1cccc2c(F)cccc12 (single isomer, unassigned) [Compound 6-1, 4-[3-(5-fluoronaphthalen-1-yl)-2-propyl-7-(4H-1,2,4-triazol-3-yl)benzimidazol-5-yl]morpholine] |
| 3 nM | CCCc1nc2c(-c3nnc[nH]3)cc(N3CCOCC3)cc2n1-c1cccc2c(F)cccc12 (single isomer, unassigned) [Compound 6-2, 4-[3-(5-fluoronaphthalen-1-yl)-2-propyl-7-(4H-1,2,4-triazol-3-yl)benzimidazol-5-yl]morpholine] |
| 140 nM | COC(=O)c1cc(N2CCOCC2)cc2c1nc(C)n2-c1cccc2ccccc12 [Compound 2-1, methyl 1-(naphthalen-1-yl)-2-methyl-6-morpholino-1H-benzo[d]imidazole-4-carboxylate] |
| 230 nM | COC(=O)c1cc(N2CCOCC2)cc2c1ncn2-c1cccc2ccccc12 [Compound 2-2, methyl 6-morpholin-4-yl-1-naphthalen-1-ylbenzimidazole-4-carboxylate] |
| 700 nM | CCOC(=O)c1nc2c(C(=O)OC)cc(N3CCOCC3)cc2n1-c1cccc2ccccc12 [Compound 2-3, 2-O-ethyl 4-O-methyl 6-morpholin-4-yl-1-naphthalen-1-ylbenzimidazole-2,4-dicarboxylate] |
| > 10000 nM | O=C(O)c1cc(N2CCOCC2)cc2c1ncn2-c1cccc2ccccc12 [Compound 3-1, 6-morpholin-4-yl-1-naphthalen-1-ylbenzimidazole-4-carboxylic acid] |
| 1800 nM | Cc1nc2c(C(=O)O)cc(N3CCOCC3)cc2n1-c1cccc2ccccc12 [Compound 3-2, 2-methyl-6-morpholin-4-yl-l-naphthalen-1-ylbenzimidazole-4-carboxylic acid] |
| 87 nM | Cc1nc2c(C(N)=O)cc(N3CCOCC3)cc2n1-c1ccc(F)c2ccccc12 [Compound 4-1, 1-(4-fluoronaphthalen-1-yl)-2-methyl-6-morpholino-1H-benzo[d]imidazole-4-carboxamide] |
| 2300 nM | Cc1nc2c(C(N)=O)cc(N3CCOCC3)cc2n1-c1cnc2c(Cl)cccc2c1 [Compound 4-2, 1-(8-chloroquinolin-3-yl)-2-methyl-6-morpholino-1H-benzo[d]imidazole-4-carboxamide] |
| 390 nM | Cc1nc2c(C(N)=O)cc(N3CCOCC3)cc2n1-c1cnc2cccc(Cl)c2c1 [Compound 4-3, 1-(5-chloroquinolin-3-yl)-2-methyl-6-morpholino-lH-benzo[d]imidazole-4-carboxamide] |
| 13 nM | Cc1nc2c(C(N)=O)cc(N3CCOCC3)cc2n1-c1cccc2c(F)cccc12 [Compound 4-4, 1-(5-fluoronaphthalen-1-yl)-2-methyl-6-morpholin-4-ylbenzimidazole-4-carboxamide] |
| 9 nM | Cc1nc2c(-c3nnc[nH]3)cc(N3CCOCC3)cc2n1-c1ccc(F)c2ccccc12 [Compound 5-1, 4-(1-(4-fluoronaphthalen-1-yl)-2-methyl-4-(4H-1,2,4-triazol-3-yl)-1H-benzo[d]imidazol-6-yl)morpholine] |
| 43 nM | Cc1nnc(-c2cc(N3CCOCC3)cc3c2nc(C)n3-c2ccc(F)c3ccccc23)[nH]1 [Compound 5-2, 4-[3-(4-fluoronaphthalen-1-yl)-2-methyl-7-(5-methyl-4H-1,2,4-triazol-3-yl)benzimidazol-5-yl]morpholine] |
| 4200 nM | Cc1nc2c(-c3nnc[nH]3)cc(N3CCOCC3)cc2n1-c1cnc2ccc(Cl)cc2c1 [Compound 5-3, 4-(1-(6-chloroquinolin-3-yl)-2-methyl-4-(4H-1,2,4-triazol-3-yl)-1H-benzo[d]imidazol-6-yl)morpholine] |
| 1200 nM | CCc1nc2c(-c3nnc[nH]3)cc(N3CCOCC3)cc2n1-c1cnc2ccccc2c1 [Compound 5-4, 4-(2-ethyl-1-(quinolin-3-yl)-4-(4H-1,2,4-triazol-3-yl)-lH-benzo[d]imidazol-6-yl)morpholine] |
| 1200 nM | Cc1nc2c(-c3nnc[nH]3)cc(N3CCOCC3)cc2n1-c1cnc2cc(Cl)ccc2c1 [Compound 5-5, 4-(1-(7-chloroquinolin-3-yl)-2-methyl-4-(4H-1,2,4-triazol-3-yl)-1H-benzo[d]imidazol-6-yl)morpholine] |
| 720 nM | Cc1nc2c(-c3nnc[nH]3)cc(N3CCOCC3)cc2n1-c1cnc2ccccc2c1 [Compound 5-6, 4-(2-methyl-1-(quinolin-3-yl)-4-(4H-1,2,4-triazol-3-yl)-1H-benzo[d]imidazol-6-yl)morpholine] |
| 190 nM | Cc1nc2c(-c3nnc[nH]3)cc(N3CCOCC3)cc2n1-c1cnc2c(Cl)cccc2c1 [Compound 5-7, 4-(1-(8-chloroquinolin-3-yl)-2-methyl-4-(4H-1,2,4-triazol-3-yl)-H-benzo[d]imidazol-6-yl)morpholine] |
| 28 nM | Cc1nc2c(-c3nnc[nH]3)cc(N3CCOCC3)cc2n1-c1cnc2cccc(Cl)c2c1 [Compound 5-8, 4-(1-(5-chloroquinolin-3-yl)-2-methyl-4-(4H-1,2,4-triazol-3-yl)-1H-benzo[d]imidazol-6-yl)morpholine] |
| 220 nM | CCc1nc2c(-c3nnc[nH]3)cc(N3CCOCC3)cc2n1-c1ccc2ccccc2n1 [Compound 5-9, 4-(2-ethyl-1-(quinolin-2-yl)-4-(4H-1,2,4-triazol-3-yl)-1H-benzo[d]imidazol-6-yl)morpholine] |
| 38 nM | Cc1nc2c(-c3nnc[nH]3)cc(N3CCOCC3)cc2n1-c1ccc2ccccc2c1 [Compound 5-10, 4-(2-methyl-1-(naphthalen-2-yl)-4-(4H-1,2,4-triazol-3-yl)-1H-benzo[d]imidazol-6-yl)morpholine] |
| 6 nM | CCCc1nc2c(-c3nnc[nH]3)cc(N3CCOCC3)cc2n1-c1cccc2c(F)cccc12 [Compound 5-11, 4-[3-(5-fluoronaphthalen-1-yl)-2-propyl-7-(4H-1,2,4-triazol-3-yl)benzimidazol-5-yl]morpholine] |
| 2 nM | Fc1cccc2c(-n3cnc4c(-c5nnc[nH]5)cc(N5CCOCC5)cc43)cccc12 [Compound 5-12, 4-[3-(5-fluoronaphthalen-1-yl)-7-(4H-1,2,4-triazol-3-yl)benzimidazol-5-yl]morpholine] |
| 5 nM | Cc1nc2c(-c3nnc[nH]3)cc(N3CCOCC3)cc2n1-c1cccc2c(F)cccc12 [Compound 5-13, 4-[3-(5-fluoronaphthalen-1-yl)-2-methyl-7-(4H-1,2,4-triazol-3-yl)benzimidazol-5-yl]morpholine] |
| 580 nM | Cc1nc2c(-c3nnc[nH]3)cc(N3CCOCC3)cc2n1-c1cc2ccccc2cn1 [Compound 5-14, 4-(1-(isoquinolin-3-yl)-2-methyl-4-(4H-1,2,4-triazol-3-yl)-1H-benzo[d]imidazol-6-yl)morpholine] |
| 3400 nM | Cc1nnc(-c2cc(N3CCOCC3)cc3c2nc(C)n3-c2cc3ccccc3cn2)[nH]1 [Compound 5-15, 4-(1-(isoquinolin-3-yl)-2-methyl-4-(5-methyl-4H-1,2,4-triazol-3-yl)-1H-benzo[d]imidazol-6-yl)morpholine] |

Source: patent US10479770B2, “Phosphatidylinositol 3-kinase inhibitors” (Gilead Sciences, Inc., priority 2016, dated 2019)
